Results as given in ChEMBL document CHEMBL4507320, “Data for DCP probe NVS-MALT1” (2021).

Experiments:
[1] = biological target: Serine/threonine-protein kinase Chk1 (Homo sapiens) (UniProt O14757); settings: Compound concentration 1000.0 nM
[2] = biological target: TRAF2 and NCK-interacting protein kinase (Homo sapiens) (UniProt Q9UKE5); settings: Compound concentration 1000.0 nM
[3] = biological target: Cyclin-dependent kinase 4 (Homo sapiens) (UniProt P11802); settings: Compound concentration 1000.0 nM
Sequence of Cyclin-dependent kinase 4 (Homo sapiens) (P11802 whole entry): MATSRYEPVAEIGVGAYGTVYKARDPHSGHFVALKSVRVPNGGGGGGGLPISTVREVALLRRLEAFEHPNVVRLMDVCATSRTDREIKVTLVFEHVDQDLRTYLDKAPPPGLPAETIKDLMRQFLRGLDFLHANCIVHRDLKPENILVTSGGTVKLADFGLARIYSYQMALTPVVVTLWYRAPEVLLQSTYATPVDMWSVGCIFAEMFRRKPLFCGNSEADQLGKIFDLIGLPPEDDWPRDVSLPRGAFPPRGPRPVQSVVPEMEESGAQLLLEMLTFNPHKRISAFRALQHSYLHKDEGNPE

[4] = biological target: Serine/threonine-protein kinase SIK3 (Homo sapiens) (UniProt Q9Y2K2); settings: Compound concentration 1000.0 nM
[5] = biological target: Bone morphogenetic protein receptor type-2 (Homo sapiens) (UniProt Q13873); settings: Compound concentration 1000.0 nM
Sequence of Bone morphogenetic protein receptor type-2 (Homo sapiens) (Q13873 whole entry): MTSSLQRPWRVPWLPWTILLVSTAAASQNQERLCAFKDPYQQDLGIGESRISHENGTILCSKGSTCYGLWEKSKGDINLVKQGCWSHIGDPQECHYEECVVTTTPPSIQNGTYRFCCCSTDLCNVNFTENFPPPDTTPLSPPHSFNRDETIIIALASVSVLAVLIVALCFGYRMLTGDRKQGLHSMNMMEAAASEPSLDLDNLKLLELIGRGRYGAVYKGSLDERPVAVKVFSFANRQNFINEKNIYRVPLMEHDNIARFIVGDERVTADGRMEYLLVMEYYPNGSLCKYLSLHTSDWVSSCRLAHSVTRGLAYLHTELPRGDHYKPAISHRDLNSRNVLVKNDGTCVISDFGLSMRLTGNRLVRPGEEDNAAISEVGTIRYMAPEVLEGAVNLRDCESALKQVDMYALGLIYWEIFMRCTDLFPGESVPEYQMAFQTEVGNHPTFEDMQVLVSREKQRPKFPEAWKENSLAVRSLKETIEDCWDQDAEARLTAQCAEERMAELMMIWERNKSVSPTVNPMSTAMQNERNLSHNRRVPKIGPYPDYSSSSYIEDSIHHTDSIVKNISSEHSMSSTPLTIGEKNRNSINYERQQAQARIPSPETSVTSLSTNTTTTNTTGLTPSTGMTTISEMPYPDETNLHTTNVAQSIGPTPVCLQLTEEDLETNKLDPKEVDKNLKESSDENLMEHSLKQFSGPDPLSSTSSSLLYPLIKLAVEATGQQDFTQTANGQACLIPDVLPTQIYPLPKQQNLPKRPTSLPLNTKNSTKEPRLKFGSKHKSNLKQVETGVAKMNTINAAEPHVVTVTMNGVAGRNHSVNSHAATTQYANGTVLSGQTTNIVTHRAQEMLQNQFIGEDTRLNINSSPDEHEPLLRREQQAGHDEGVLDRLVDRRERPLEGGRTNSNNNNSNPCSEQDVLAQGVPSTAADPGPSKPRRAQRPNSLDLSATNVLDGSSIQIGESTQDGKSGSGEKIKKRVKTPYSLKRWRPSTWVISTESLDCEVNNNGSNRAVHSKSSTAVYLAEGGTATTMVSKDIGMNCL

[6] = biological target: Citron Rho-interacting kinase (Homo sapiens) (UniProt O14578); settings: Compound concentration 1000.0 nM
[7] = tested on: Tyrosine-protein kinase ABL1 (Homo sapiens), P00519 [Q252H]; settings: Compound concentration 1000.0 nM
[8] = biological target: Mitogen-activated protein kinase 13 (Homo sapiens) (UniProt O15264); settings: Compound concentration 1000.0 nM
[9] = biological target: Atypical kinase COQ8A, mitochondrial (Homo sapiens) (UniProt Q8NI60); settings: Compound concentration 1000.0 nM
[10] = biological target: Protein kinase C delta type (Homo sapiens) (UniProt Q05655); settings: Compound concentration 1000.0 nM
[11] = biological target: Calcium/calmodulin-dependent protein kinase type II subunit delta (Homo sapiens) (UniProt Q13557); settings: Compound concentration 1000.0 nM
[12] = biological target: Calcium/calmodulin-dependent protein kinase type 1G (Homo sapiens) (UniProt Q96NX5); settings: Compound concentration 1000.0 nM
[13] = biological target: Tyrosine-protein kinase Srms (Homo sapiens) (UniProt Q9H3Y6); settings: Compound concentration 1000.0 nM
[14] = biological target: Proto-oncogene tyrosine-protein kinase Src (Homo sapiens) (UniProt P12931); settings: Compound concentration 1000.0 nM
Sequence of Proto-oncogene tyrosine-protein kinase Src (Homo sapiens) (P12931 2-536 limits assumed): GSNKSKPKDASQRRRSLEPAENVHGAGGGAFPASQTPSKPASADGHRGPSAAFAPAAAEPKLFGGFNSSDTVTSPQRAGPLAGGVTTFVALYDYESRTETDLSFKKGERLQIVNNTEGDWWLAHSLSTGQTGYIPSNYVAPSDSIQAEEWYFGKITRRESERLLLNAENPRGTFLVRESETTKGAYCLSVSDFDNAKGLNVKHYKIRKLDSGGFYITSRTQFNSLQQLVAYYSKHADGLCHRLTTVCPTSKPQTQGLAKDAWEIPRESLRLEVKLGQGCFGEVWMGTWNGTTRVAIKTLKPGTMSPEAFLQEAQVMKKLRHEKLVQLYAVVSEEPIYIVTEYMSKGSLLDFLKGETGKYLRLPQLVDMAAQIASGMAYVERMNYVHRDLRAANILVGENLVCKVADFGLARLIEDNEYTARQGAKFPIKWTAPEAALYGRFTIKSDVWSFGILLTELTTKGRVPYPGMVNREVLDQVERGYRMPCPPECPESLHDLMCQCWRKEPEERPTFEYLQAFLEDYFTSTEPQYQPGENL

[15] = biological target: Receptor-interacting serine/threonine-protein kinase 4 (Homo sapiens) (UniProt P57078); settings: Compound concentration 1000.0 nM
[16] = tested on: Phosphatidylinositol 4,5-bisphosphate 3-kinase catalytic subunit alpha isoform (Homo sapiens), P42336 [H1047L]; settings: Compound concentration 1000.0 nM
[17] = biological target: Serine/threonine-protein kinase TAO2 (Homo sapiens) (UniProt Q9UL54); settings: Compound concentration 1000.0 nM
[18] = biological target: Serine/threonine-protein kinase 4 (Homo sapiens) (UniProt Q13043); settings: Compound concentration 1000.0 nM
[19] = tested on: Tyrosine-protein kinase ABL1 (Homo sapiens), P00519 [F317L]; settings: Compound concentration 1000.0 nM
[20] = biological target: Serine/threonine-protein kinase PLK2 (Homo sapiens) (UniProt Q9NYY3); settings: Compound concentration 1000.0 nM
[21] = biological target: Cyclin-dependent kinase 5 (Homo sapiens) (UniProt Q00535); settings: Compound concentration 1000.0 nM
[22] = tested on: Tyrosine-protein kinase ABL1 (Homo sapiens), P00519 [Y253F]; settings: Compound concentration 1000.0 nM
[23] = biological target: Mitogen-activated protein kinase kinase kinase kinase 3 (Homo sapiens) (UniProt Q8IVH8); settings: Compound concentration 1000.0 nM
Sequence of Mitogen-activated protein kinase kinase kinase kinase 3 (Homo sapiens) (Q8IVH8 whole entry): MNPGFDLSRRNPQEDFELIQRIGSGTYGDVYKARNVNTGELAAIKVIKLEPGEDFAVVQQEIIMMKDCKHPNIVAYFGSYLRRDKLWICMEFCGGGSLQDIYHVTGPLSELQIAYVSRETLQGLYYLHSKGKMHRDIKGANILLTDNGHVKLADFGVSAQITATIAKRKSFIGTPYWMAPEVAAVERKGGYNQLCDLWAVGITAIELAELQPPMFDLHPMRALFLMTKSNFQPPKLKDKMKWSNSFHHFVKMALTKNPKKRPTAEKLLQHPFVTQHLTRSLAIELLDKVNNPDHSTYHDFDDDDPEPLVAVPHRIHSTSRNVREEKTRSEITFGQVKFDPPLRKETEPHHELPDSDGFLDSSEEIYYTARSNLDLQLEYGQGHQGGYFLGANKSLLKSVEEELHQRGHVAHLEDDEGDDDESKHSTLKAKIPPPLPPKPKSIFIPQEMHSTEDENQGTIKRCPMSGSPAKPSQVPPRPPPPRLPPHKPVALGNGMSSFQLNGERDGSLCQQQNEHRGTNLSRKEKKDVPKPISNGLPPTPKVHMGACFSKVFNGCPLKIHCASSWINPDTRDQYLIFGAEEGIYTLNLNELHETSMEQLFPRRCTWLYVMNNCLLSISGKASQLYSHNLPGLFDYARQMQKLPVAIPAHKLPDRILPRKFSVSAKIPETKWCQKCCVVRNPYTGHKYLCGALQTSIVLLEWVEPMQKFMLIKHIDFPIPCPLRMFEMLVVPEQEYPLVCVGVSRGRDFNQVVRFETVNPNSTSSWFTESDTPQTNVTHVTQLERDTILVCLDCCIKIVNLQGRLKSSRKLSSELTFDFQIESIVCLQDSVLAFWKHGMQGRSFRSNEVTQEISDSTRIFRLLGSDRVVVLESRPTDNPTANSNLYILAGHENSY

[24] = biological target: Ephrin type-A receptor 5 (Homo sapiens) (UniProt P54756); settings: Compound concentration 1000.0 nM
[25] = biological target: Wee1-like protein kinase 2 (Homo sapiens) (UniProt P0C1S8); settings: Compound concentration 1000.0 nM
[26] = biological target: Serine/threonine-protein kinase PAK 4 (Homo sapiens) (UniProt O96013); settings: Compound concentration 1000.0 nM
[27] = biological target: Ephrin type-A receptor 4 (Homo sapiens) (UniProt P54764); settings: Compound concentration 1000.0 nM
Sequence of Ephrin type-A receptor 4 (Homo sapiens) (P54764 whole entry): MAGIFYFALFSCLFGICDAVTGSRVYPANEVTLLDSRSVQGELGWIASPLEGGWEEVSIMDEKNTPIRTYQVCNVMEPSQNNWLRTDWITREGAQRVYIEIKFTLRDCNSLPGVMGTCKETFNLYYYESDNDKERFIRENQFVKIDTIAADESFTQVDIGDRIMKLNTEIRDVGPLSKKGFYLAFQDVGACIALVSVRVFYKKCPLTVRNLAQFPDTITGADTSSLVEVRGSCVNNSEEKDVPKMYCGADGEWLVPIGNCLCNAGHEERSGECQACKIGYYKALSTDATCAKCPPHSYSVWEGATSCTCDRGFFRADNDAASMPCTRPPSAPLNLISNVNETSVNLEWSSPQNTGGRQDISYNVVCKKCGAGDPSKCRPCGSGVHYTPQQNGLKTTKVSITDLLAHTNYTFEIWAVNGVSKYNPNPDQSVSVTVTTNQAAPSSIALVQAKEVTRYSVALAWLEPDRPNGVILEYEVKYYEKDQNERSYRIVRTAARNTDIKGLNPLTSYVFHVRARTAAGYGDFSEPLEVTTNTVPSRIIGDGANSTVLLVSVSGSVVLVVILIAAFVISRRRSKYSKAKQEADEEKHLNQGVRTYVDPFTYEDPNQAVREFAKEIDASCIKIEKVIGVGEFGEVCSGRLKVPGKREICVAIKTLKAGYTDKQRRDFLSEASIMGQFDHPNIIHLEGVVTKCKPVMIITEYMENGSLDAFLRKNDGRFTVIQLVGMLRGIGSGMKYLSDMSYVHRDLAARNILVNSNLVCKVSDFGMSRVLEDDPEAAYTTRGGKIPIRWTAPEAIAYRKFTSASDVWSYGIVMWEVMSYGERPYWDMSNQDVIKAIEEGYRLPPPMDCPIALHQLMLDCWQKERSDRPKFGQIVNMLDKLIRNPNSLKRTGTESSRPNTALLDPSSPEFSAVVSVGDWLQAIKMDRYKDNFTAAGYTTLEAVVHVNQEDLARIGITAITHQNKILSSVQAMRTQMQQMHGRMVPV

[28] = tested on: Epidermal growth factor receptor (Homo sapiens), P00533 [L858R]; settings: Compound concentration 1000.0 nM
[29] = biological target: Phosphatidylinositol 4,5-bisphosphate 3-kinase catalytic subunit alpha isoform (Homo sapiens) (UniProt P42336); settings: Compound concentration 1000.0 nM
[30] = biological target: Serine/threonine-protein kinase MRCK beta (Homo sapiens) (UniProt Q9Y5S2); settings: Compound concentration 1000.0 nM
[31] = biological target: TGF-beta receptor type-2 (Homo sapiens) (UniProt P37173); settings: Compound concentration 1000.0 nM
[32] = biological target: Tyrosine-protein kinase Mer (Homo sapiens) (UniProt Q12866); settings: Compound concentration 1000.0 nM
[33] = biological target: Tyrosine-protein kinase Fer (Homo sapiens) (UniProt P16591); settings: Compound concentration 1000.0 nM
Sequence of Tyrosine-protein kinase Fer (Homo sapiens) (P16591 whole entry, looked up): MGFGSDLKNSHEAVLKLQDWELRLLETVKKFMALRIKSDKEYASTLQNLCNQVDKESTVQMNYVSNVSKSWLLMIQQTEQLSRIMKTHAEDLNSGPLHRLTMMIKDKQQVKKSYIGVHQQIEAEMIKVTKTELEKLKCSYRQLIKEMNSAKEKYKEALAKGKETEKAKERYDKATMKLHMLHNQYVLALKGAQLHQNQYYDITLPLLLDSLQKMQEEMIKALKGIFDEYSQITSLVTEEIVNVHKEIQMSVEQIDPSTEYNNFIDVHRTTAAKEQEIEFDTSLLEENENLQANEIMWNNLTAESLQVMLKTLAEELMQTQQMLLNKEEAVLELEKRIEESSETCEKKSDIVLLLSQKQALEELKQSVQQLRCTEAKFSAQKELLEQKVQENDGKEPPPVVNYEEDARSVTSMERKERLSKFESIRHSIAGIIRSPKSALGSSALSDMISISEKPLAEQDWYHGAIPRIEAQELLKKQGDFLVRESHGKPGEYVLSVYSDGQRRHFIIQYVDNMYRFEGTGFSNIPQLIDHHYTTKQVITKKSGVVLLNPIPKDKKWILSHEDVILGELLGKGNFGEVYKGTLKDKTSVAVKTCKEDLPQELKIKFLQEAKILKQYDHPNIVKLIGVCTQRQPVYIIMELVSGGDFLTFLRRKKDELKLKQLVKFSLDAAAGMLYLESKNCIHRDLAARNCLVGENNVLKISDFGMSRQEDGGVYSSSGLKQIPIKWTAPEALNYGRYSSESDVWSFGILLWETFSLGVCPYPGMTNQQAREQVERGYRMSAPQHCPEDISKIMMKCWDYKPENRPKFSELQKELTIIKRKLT

[34] = biological target: Serine/threonine-protein kinase 25 (Homo sapiens) (UniProt O00506); settings: Compound concentration 1000.0 nM
[35] = tested on: Hepatocyte growth factor receptor (Homo sapiens), P08581 [M1250T]; settings: Compound concentration 1000.0 nM
[36] = biological target: D(2) dopamine receptor (Homo sapiens) (UniProt P14416); settings: Compound concentration 10.0 uM
[37] = biological target: Ephrin type-B receptor 1 (Homo sapiens) (UniProt P54762); settings: Compound concentration 1000.0 nM
[38] = biological target: Dual specificity testis-specific protein kinase 1 (Homo sapiens) (UniProt Q15569); settings: Compound concentration 1000.0 nM
[39] = tested on: Tyrosine-protein kinase ABL1 (Homo sapiens), P00519 [H396P]; settings: Compound concentration 1000.0 nM
[40] = biological target: Bone morphogenetic protein receptor type-1A (Homo sapiens) (UniProt P36894); settings: Compound concentration 1000.0 nM
[41] = biological target: MAP/microtubule affinity-regulating kinase 3 (Homo sapiens) (UniProt P27448); settings: Compound concentration 1000.0 nM
[42] = biological target: Beta-3 adrenergic receptor (Homo sapiens) (UniProt P13945); settings: Compound concentration 10.0 uM
[43] = biological target: Dual specificity mitogen-activated protein kinase kinase 5 (Homo sapiens) (UniProt Q13163); settings: Compound concentration 1000.0 nM
[44] = biological target: Myosin light chain kinase (Homo sapiens) (UniProt Q32MK0); settings: Compound concentration 1000.0 nM
[45] = biological target: Rho-associated protein kinase 2 (Homo sapiens) (UniProt O75116); settings: Compound concentration 1000.0 nM

Sequence of Serine/threonine-protein kinase Chk1 (Homo sapiens) (O14757 whole entry): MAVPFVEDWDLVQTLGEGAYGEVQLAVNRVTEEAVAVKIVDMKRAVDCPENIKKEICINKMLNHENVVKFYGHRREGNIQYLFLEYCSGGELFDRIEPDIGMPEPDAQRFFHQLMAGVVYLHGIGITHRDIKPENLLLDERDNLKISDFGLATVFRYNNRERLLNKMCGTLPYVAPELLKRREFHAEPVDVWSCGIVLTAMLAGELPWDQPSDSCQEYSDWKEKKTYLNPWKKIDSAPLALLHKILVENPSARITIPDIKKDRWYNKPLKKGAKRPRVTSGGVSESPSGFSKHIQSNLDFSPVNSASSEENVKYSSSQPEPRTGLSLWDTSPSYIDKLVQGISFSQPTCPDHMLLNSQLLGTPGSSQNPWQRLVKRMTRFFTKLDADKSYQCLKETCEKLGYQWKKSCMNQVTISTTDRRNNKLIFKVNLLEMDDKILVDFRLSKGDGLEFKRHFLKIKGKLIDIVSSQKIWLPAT

CO[C@@H](C)c1c(Nc2ccc([C@@H](N(C)C(=O)C3CCS(=O)(=O)CC3)C(F)(F)F)cc2)cnc2cc(Cl)nn12 [NVS-MALT1-C]
inactive: residual activity [1] 95% | residual activity [2] 100% | residual activity [3] 100% | residual activity [4] 100% | residual activity [5] 84% | residual activity [6] 97% | residual activity [7] 100% | residual activity [8] 100% | residual activity [9] 100% | residual activity [10] 90% | residual activity [11] 100% | residual activity [12] 100% | residual activity [13] 100% | residual activity [14] 98% | residual activity [15] 100% | residual activity [16] 98% | residual activity [17] 94% | residual activity [18] 100% | residual activity [19] 100% | residual activity [20] 100% | residual activity [21] 99% | residual activity [22] 100% | residual activity [23] 94% | residual activity [24] 100% | residual activity [25] 100% | residual activity [26] 100% | residual activity [27] 100% | residual activity [28] 87% | residual activity [29] 92% | residual activity [30] 89% | residual activity [31] 100% | residual activity [32] 79% | residual activity [33] 89% | residual activity [34] 84% | residual activity [35] 100% | inhibition [36] -4.3% | residual activity [37] 92% | residual activity [38] 83% | residual activity [39] 96% | residual activity [40] 100% | residual activity [41] 100% | inhibition [42] 12.9% | residual activity [43] 91% | residual activity [44] 87% | residual activity [45] 100%

CO[C@@H](C)c1c(Nc2ccc([C@H](N(C)C(=O)C3CCS(=O)(=O)CC3)C(F)(F)F)cc2)cnc2cc(Cl)nn12 [NVS-MALT1]
inactive: residual activity [1] 91% | residual activity [2] 100% | residual activity [3] 100% | residual activity [4] 100% | residual activity [5] 91% | residual activity [6] 94% | residual activity [7] 100% | residual activity [8] 100% | residual activity [9] 100% | residual activity [10] 79% | residual activity [11] 86% | residual activity [12] 100% | residual activity [13] 95% | residual activity [14] 99% | residual activity [15] 76% | residual activity [16] 92% | residual activity [17] 88% | residual activity [18] 100% | residual activity [19] 100% | residual activity [20] 100% | residual activity [21] 96% | residual activity [22] 100% | residual activity [23] 99% | residual activity [24] 100% | residual activity [25] 88% | residual activity [26] 95% | residual activity [27] 83% | residual activity [28] 88% | residual activity [29] 94% | residual activity [30] 81% | residual activity [31] 100% | residual activity [32] 87% | residual activity [33] 88% | residual activity [34] 87% | residual activity [35] 92% | inhibition [36] 4.1% | residual activity [37] 86% | residual activity [38] 85% | residual activity [39] 95% | residual activity [40] 71% | residual activity [41] 100% | inhibition [42] 15.4% | residual activity [43] 60% | residual activity [44] 84% | residual activity [45] 100%
